In BindingDB's records for doi:10.1021/jm058041z (University of Würzburg, 2005):

Test: Inhibition of acetylcholinesterase

`Nc1c2c(nc3c(CO)cccc13)CCCC2` [9-amino-5,6,7,8-tetrahydroacridin-4yl)methano] gave an IC50 of 125 nM.
